# Measured values published in patent publication US20250163522A1, “METHODS FOR PRESERVING HEALTHY INTESTINAL MICROBIOME DURING GROWTH PROMOTER ADMINSTRATION” (BIOMEDIT, LLC, priority 2022, published 2025).
# Where two headings read alike, the source gives them in different places.
# Tests used:
# [1] = format: in vivo, chickens (Gallus gallus)
# Procedure: 15 cecal samples and 10 serum samples from day 35 birds were sent to metabolon (Morrisville, NC) for untargeted metabolomics analysis. These numbers of samples were sent for both the control and narasin treatments. Serum samples were selected sequentially, that is, without knowledge of bird performance or results from other analyses.
# Samples were prepared using the automated MicroLab STAR® system from Hamilton Company. Samples were extracted with methanol under vigorous shaking for 2 min (Glen Mills GenoGrinder 2000) to precipitate protein and dissociate small molecules bound to protein or trapped in the precipitated protein matrix, followed by centrifugation to recover chemically diverse metabolites. The resulting extract was divided into four fractions: two for analysis by two separate reverse phase (RP)/Ultrahigh Performance Liquid Chromatography-Tandem Mass Spectroscopy (UPLC-MS/MS) methods using positive ion mode electrospray ionization (ESI), one for analysis by RP/UPLC-MS/MS using negative ion mode ESI, and one for analysis by HILIC/UPLC-MS/MS using negative ion mode ESI. Samples were placed briefly on a TurboVap® (Zymark) to remove the organic solvent. The sample extracts were stored overnight under nitrogen before preparation for analysis.
# The sample extract was dried and reconstituted in solvents compatible to each of the four methods. One aliquot was analyzed using acidic positive ion conditions, chromatographically optimized for more hydrophilic compounds. In this method, the extract is gradient-eluted from a C18 column (Waters UPLC BEH C18-2.1×100 mm, 1.7 μm) using water and methanol, containing 0.05% perfluoropentanoic acid (PFPA) and 0.1% formic acid (FA). A second aliquot was also analyzed using acidic positive ion conditions but was chromatographically optimized for more hydrophobic compounds. In this method, the extract is gradient eluted from the C18 column using methanol, acetonitrile, water, 0.05% PFPA and 0.01% FA, and is operated at an overall higher organic content. A third aliquot was analyzed using basic negative ion optimized conditions using a separate dedicated C18 column. The basic extracts were gradient-eluted from the column using methanol and water, and with 6.5 mM Ammonium Bicarbonate at pH 8. The fourth aliquot was analyzed via negative ionization following elution from a HILIC column (Waters UPLC BEH Amide 2.1×150 mm, 1.7 μm) using a gradient consisting of water and acetonitrile with 10 mM Ammonium Formate, pH 10.8. The MS analysis alternates between MS and data-dependent MS^n scans using dynamic exclusion. The scan range varies slightly between methods, but covers approximately 70-1000 m/z.
# UPLC-MS/MS was done using a Waters ACQUITY ultra-performance liquid chromatography (UPLC) and a Thermo Scientific Q-Exactive high resolution/accurate mass spectrometer interfaced with a heated electrospray ionization (HESI-II) source and Orbitrap mass analyzer operated at 35,000 mass resolution.
# Raw data was extracted, peak-identified, and QC processed using Metabolon's hardware and software. Compounds were identified by comparison to library entries of purified standards. The library, based on authenticated standards, contains the retention time/index (RI), mass to charge ratio (m/z), and chromatographic data (including MS/MS spectral data) on all molecules present in the library. Biochemical identifications were based on three criteria: retention index within a narrow RI window of the proposed identification, accurate mass match to the library+/−10 ppm, and the MS/MS forward and reverse scores. MS/MS scores are based on a comparison of the ions present in the experimental spectrum to ions present in the library entry spectrum.
# Peaks were quantified as area-under-the-curve (AUC) detector ion counts. For each identified metabolite, AUC values were rescaled by dividing by the median AUC value across all samples. […]
# [2] = system: AMR genes in the cecum microbiome; experiment: AMR gene abundance analysis (AMR++ pipeline) of cecal microbiome; format: in vivo, chickens (Gallus gallus); details: day 35 cecum
# Procedure: AMR gene abundances per sample were determined using the AMR++ pipeline (Lakin, S. M. et al., Nucleic Acids Res 45, D574-D580 (2017)) (v. 2.0.2) starting from the raw metagenomics sequences and using the MegaRes (v. 2.0.0) database. Only genes involved in drug resistance were considered. The AMR gene counts per sample obtained from AMR++ were expressed in unites of reads per kilobase per million reads (RPKM) based on the corresponding gene lengths from the MegaRes database. RPKM values across treatments were compared using the Mann-Whitney U test.
# [3] = cecum, day 35, corrected p-value<0.05
structure (smiles),measurement,setting,value
CC[C@@H](C(=O)O)[C@@H]1O[C@@H]([C@@H](C)[C@H](O)[C@H](C)C(=O)[C@H](CC)[C@H]2O[C@]3(C=C[C@@H](O)[C@]4(CC[C@@](C)([C@H]5CC[C@](O)(CC)[C@H](C)O5)O4)O3)[C@H](C)C[C@@H]2C)[C@@H](C)C[C@@H]1C [narasin],spermidine concentration,"[1]; cecum and serum, day 35",lower concentration
same,amino acid concentrations compared to controls,"[1]; cecum, day 35",all 20 amino acids were found at lower concentrations
same,riboflavin concentration,"[1]; cecum, day 35",higher concentration
same,number of metabolites at higher abundance compared to controls,[1]; [3],49
same,number of metabolites at lower abundance compared to controls,[1]; [3],78
same,number of metabolites at higher abundance compared to controls,"[1]; serum, day 35",4
same,number of metabolites at lower abundance compared to controls,"[1]; serum, day 35",93
same,urea level compared to controls,"[1]; serum, day 35",lower levels
same,effect on AMR gene abundance profiles,[2],significantly different AMR gene abundance profiles
same,AMR gene classes changed compared to controls,[2]; Mann-Whitney U p-value<0.05,enriched for resistance to tetracyclines
same,total AMR gene abundance compared to control,[2]; RPKM,significant increase
